Laboratory results reported in ChEMBL document CHEMBL4196245, “Structures and Antimutagenic Effects of Onoceranoid-Type Triterpenoids from the Leaves of Lansium domesticum” (2018).
The source made the active and inactive calls. No cut-off for these calls is given here.

Key:
Mus musculus = species on record: Mus musculus; assay: Antimutagenic activity against PhIP-induced mutation in ICR mouse assessed as reduction in micronucleated reticulocytes at 0.03 to 0.06% w/w treated prior to PhIP addition measured 24 to 48 hrs post dose by fluorescence microscopic analysis; type: functional, organism-based
Salmonella typhimurium [1] = assay: Antimutagenic activity against Salmonella typhimurium TA98 assessed as inhibition of Trp-P-1-induced mutation at 100 nmol/plate measured in presence of S9 fraction by Ames test relative to control; type: functional, Salmonella enterica subsp. enterica serovar Typhimurium
Salmonella typhimurium [2] = assay: Antimutagenic activity against Salmonella typhimurium TA98 assessed as inhibition of Trp-P-1-induced mutation at 80 nmol/plate measured in presence of S9 fraction by Ames test relative to control; type: functional, Salmonella enterica subsp. enterica serovar Typhimurium

Row | SMILES | inhibition (INH) (Salmonella typhimurium [1]) [%] | other results
1 | C=C(C)[C@@H]1CC=C(C)[C@H](CC[C@H]2C(=C)CC[C@H]3C(C)(C)C(=O)CC[C@]23C)[C@@]1(C)CCC(=O)O |  | Activity (Mus musculus): Active
2 | C=C(C)[C@@H]1CC=C(C)[C@H](CC[C@H]2C(=C)CC[C@H]3C(C)(C)[C@@H](O)CC[C@]23C)[C@@]1(C)CCC(=O)OCC [ETHYL LANSIOLATE] | 7.9 | 
3 | COc1ccc(-c2cc(=O)c3c(OC)c(OC)c(OC)c(OC)c3o2)cc1OC [NOBILETIN] |  | inhibition (INH) (Salmonella typhimurium [2]): 56%
4 | C=C(C)[C@@H]1CC=C(C)[C@H](CC[C@H]2C(=C)CC[C@H]3C(C)(C)[C@@H](O)CC[C@]23C)[C@@]1(C)CCC(=O)O | 73.8 | 
5 | C=C(C)[C@@H]1CC=C(C)[C@H](CC[C@H]2C(=C)CC[C@H]3C(C)(C)[C@@H](O)CC[C@]23C)[C@@]1(C)CCC(=O)OC | 29.5 | 
